Assay results published in patent publication US10273236B2, “Macrocyclic factor XIa inhibitors bearing heterocyclic groups” (Bristol-Myers Squibb Company, priority 2014, dated 2019).
Where a name gives a salt, the structure may show the parent alone.

What was measured:
[1] = molecular target: T1, purified human Factor XIa (Homo sapiens, UniProt P03951); assay: Factor XIa inhibition assay, chromogenic substrate S-2366 (Ki); assay type: biochemical
T1 construct: purchased Haematologic Technologies
Method: (§1) The effectiveness of compounds of the present invention as inhibitors of the coagulation Factors XIa, VIIa, IXa, Xa, XIIa, plasma kallikrein or thrombin, can be determined using a relevant purified serine protease, respectively, and an appropriate synthetic substrate. The rate of hydrolysis of the chromogenic or fluorogenic substrate by the relevant serine protease was measured both in the absence and presence of compounds of the present invention. […] A decrease in the rate of absorbance or fluorescence change in the presence of inhibitor is indicative of enzyme inhibition. Such methods are known to one skilled in the art. The results of this assay are expressed as the inhibitory constant, Ki.
Factor XIa determinations were made in 50 mM HEPES buffer at pH 7.4 containing 145 mM NaCl, 5 mM KCl, and 0.1% PEG 8000 (polyethylene glycol; JT Baker or Fisher Scientific). Determinations were made using purified human Factor XIa at a final concentration of 25-200 pM (Haematologic Technologies) and the synthetic substrate S-2366 (pyroGlu-Pro-Arg-pNA; Chromogenix or AnaSpec) at a concentration of 0.0002-0.001 M.
(§2) Values of Ki were determined by allowing the protease to react with the substrate in the presence of the inhibitor.
(§3) Reactions were allowed to go for periods of 20-180 minutes (depending on the protease) and the velocities (rate of absorbance or fluorescence change versus time) were measured.
(§4) The following relationships were used to calculate Ki values: (Vmax*S)/(Km+S) (vo−vs)/vs=I/(Ki(1+S/Km)) for a competitive inhibitor with one binding site; or vs/vo=A+((B−A)/1+((IC50/(I)^n))); and Ki=IC50/(1+S/Km) for a competitive inhibitor where: […]

[2] = molecular target: T2, purified human plasma kallikrein (Homo sapiens, UniProt P03952); assay: Plasma kallikrein inhibition assay, chromogenic substrate S-2302 (Ki); assay type: biochemical
T2 construct: Plasma prekallikrein is a zymogen of a trypsin-like serine protease; purchased Enzyme Research Laboratories
Method: as §1
Plasma kallikrein determinations were made in 0.1 M sodium phosphate buffer at a pH of 7.5 containing 0.1-0.2 M sodium chloride and 0.5% PEG 8000. Determinations were made using purified human plasma kallikrein (Enzyme Research Laboratories) at a final assay concentration of 200 pM and the synthetic substrate S-2302 (H-(D)-Pro-Phe-Arg-pNA; Chromogenix) at a concentration of 0.00008-0.0004 M.
as §2, §3, §4

T2 sequence (P03952 391-638 limits assumed): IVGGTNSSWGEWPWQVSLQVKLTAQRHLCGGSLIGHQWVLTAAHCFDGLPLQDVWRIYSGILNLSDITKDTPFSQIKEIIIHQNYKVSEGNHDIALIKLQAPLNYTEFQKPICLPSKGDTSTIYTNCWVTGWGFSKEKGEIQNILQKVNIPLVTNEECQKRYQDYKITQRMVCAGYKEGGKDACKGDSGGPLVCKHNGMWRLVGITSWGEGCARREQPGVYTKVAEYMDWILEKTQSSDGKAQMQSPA
T2 sequence (P03952 20-390 partner limits assumed): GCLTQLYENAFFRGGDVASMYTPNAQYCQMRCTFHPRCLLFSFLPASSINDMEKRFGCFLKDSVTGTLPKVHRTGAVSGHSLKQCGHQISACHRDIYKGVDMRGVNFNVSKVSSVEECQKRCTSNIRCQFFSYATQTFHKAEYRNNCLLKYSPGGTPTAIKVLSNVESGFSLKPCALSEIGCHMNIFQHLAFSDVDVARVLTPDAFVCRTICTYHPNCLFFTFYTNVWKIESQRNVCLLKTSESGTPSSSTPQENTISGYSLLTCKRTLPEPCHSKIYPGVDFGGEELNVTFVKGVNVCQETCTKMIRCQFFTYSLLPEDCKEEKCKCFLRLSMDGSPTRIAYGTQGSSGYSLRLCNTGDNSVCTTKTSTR
T1 sequence (P03951 388-625 limits assumed): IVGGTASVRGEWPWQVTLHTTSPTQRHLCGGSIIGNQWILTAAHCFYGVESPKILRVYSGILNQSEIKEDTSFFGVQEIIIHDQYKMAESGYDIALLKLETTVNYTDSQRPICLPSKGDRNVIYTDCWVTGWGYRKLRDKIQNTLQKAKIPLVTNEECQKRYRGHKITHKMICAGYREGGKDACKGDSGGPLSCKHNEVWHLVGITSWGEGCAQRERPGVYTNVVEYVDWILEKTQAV
T1 sequence (P03951 19-387 partner limits assumed): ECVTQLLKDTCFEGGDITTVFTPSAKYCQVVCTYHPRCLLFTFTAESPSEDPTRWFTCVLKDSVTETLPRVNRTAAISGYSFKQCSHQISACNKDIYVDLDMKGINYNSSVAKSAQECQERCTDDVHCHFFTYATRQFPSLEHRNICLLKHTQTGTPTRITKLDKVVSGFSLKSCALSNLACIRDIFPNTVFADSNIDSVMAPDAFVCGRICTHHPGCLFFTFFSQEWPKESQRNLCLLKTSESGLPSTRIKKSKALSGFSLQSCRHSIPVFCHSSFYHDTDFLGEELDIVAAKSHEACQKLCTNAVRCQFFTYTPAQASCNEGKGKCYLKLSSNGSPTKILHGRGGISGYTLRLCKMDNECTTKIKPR

| Compound | Ki [1] [nM] | Ki [2] [nM] |
| --- | --- | --- |
| C[C@@H]1CCC[C@H](N2CCC(c3cc(Cl)ccc3-n3ccnn3)=CC2=O)c2cc(ccn2)-c2c(cnn2C2CC2)NC1=O (stereo in doubt) [Example 5, 13-{4-[5-chloro-2-(1H-1,2,3-triazol-1-yl)phenyl]-6-oxo-1,2,3,6-tetrahydropyridin-1-yl}-3-cyclopropyl-9-methyl-3,4,7,15-tetraazatricyclo [12.3.1.0^2,6]octadeca-1(18),2(6),4,14,16-pentaen-8-one] | 1.4 | 52 |
| CCn1ncc2c1-c1ccnc(c1)[C@@H](N1CCC(c3cc(Cl)ccc3-n3ccnn3)=CC1=O)CCC[C@@H](C)C(=O)N2 (stereo in doubt) [Example 7, 13-{4-[5-chloro-2-(1H-1,2,3-triazol-1-yl)phenyl]-6-oxo-1,2,3,6-tetrahydropyridin-1-yl}-3-ethyl-9-methyl-3,4,7,15-tetraazatricyclo[12.3.1.0^2,6]octadeca-1(18),2(6),4,14,16-pentaen-8-one] |  | 41 |
| C[C@@H]1CCC[C@H](N2CCC(c3cc(Cl)ccc3-n3ccnn3)=CC2=O)c2cc(ccn2)-c2c(cnn2CC(F)F)NC1=O (stereo in doubt) [Example 8, 13-{4-[5-chloro-2-(1H-1,2,3-triazol-1-yl)phenyl]-6-oxo-1,2,3,6-tetrahydropyridin-1-yl}-3-(2,2-difluoroethyl)-9-methyl-3,4,7,15-tetraazatricyclo [12.3.1.0^2,6]octadeca-1(18),2(6),4,14,16-pentaen-8-one] |  | 90 |
| C[C@@H]1CCC[C@H](N2CCC(c3cc(Cl)ccc3-n3ccnn3)=CC2=O)c2cc(ccn2)-c2c(cnn2CCO)NC1=O (stereo in doubt) [Example 11, 13-{4-[5-chloro-2-(1H-1,2,3-triazol-1-yl)phenyl]-6-oxo-1,2,3,6-tetrahydropyridin-1-yl}-3-(2-hydroxyethyl)-9-methyl-3,4,7,15-tetraazatricyclo[12.3.1.0^2,6]octadeca-1(18),2(6),4,14,16-pentaen-8-one] | 5.5 | 140 |
| C[C@@H]1CCC[C@H](N2CCC(c3cc(Cl)ccc3-n3ccnn3)=CC2=O)c2cc(ccn2)-c2c(cnn2C)NC1=O [Example 1, (9R,13S)-13-{4-[5-chloro-2-(1H-1,2,3-triazol-1-yl)phenyl]-6-oxo-1,2,3,6-tetrahydropyridin-1-yl}-3,9-dimethyl-3,4,7,15-tetraazatricyclo[12.3.1.0^2,6]octadeca-1(18),2(6),4,14,16-pentaen-8-one trifluoroacetate] | 1.8 | 24 |
| C[C@@H]1CCC[C@H](N2CCC(c3c(F)ccc(Cl)c3F)=CC2=O)c2cc(ccn2)-c2c(cnn2C)NC1=O [Example 2, (9R,13S)-13-[4-(3-chloro-2,6-difluorophenyl)-6-oxo-1,2,3,6-tetrahydropyridin-1-yl]-3,9-dimethyl-3,4,7,15-tetraazatricyclo[12.3.1.0^2,6]octadeca-1(18),2(6),4,14,16-pentaen-8-one] | 10 | 30 |
| C[C@@H]1CCC[C@H](N2CCC(c3cc(Cl)ccc3-n3cc(Cl)nn3)=CC2=O)c2cc(ccn2)-c2c(cnn2C)NC1=O [Example 3, (9R,13S)-13-{4-[5-chloro-2-(4-chloro-1H-1,2,3-triazol-1-yl)phenyl]-6-oxo-1,2,3,6-tetrahydropyridin-1-yl}-3,9-dimethyl-3,4,7,15-tetraazatricyclo [12.3.1.0^2,6]octadeca-1(18),2(6),4,14,16-pentaen-8-one] | 0.12 | 6 |
| C[C@@H]1CCC[C@H](n2ccc(-c3cc(Cl)ccc3C#N)cc2=O)c2cc(ccn2)-c2c(cnn2C(F)F)NC1=O [Example 4, 4-chloro-2-{1-[(9R,13S)-3-(difluoromethyl)-9-methyl-8-oxo-3,4,7,15-tetraazatricyclo[12.3.1.0^2,6]octadeca-1(18),2(6),4,14,16-pentaen-13-yl]-2-oxo-1,2-dihydropyridin-4-yl}benzonitrile] | 3.2 | 19 |
| C[C@@H]1CCC[C@H](N2CCC(c3c(C(F)(F)F)ccc(Cl)c3F)=CC2=O)c2cc(ccn2)-c2c(cnn2C)NC1=O [Example 6] | 1.7 | 7 |
| C[C@@H]1CCC[C@H](N2CCC(c3c(F)ccc(Cl)c3F)=CC2=O)c2cc(ccn2)-c2nn(-c3ccnc(O)c3)cc2NC1=O [Example 9, (9R,13S)-13-[4-(3-chloro-2,6-difluorophenyl)-6-oxo-1,2,3,6-tetrahydropyridin-1-yl]-4-(2-hydroxypyridin-4-yl)-9-methyl-3,4,7,15-tetraazatricyclo[12.3.1.0^2,6]octadeca-1(18),2,5,14,16-pentaen-8-one] | 14 | 14 |
| CCn1ncc2c1-c1ccnc(c1)[C@@H](N1CCC(c3c(F)ccc(Cl)c3F)=CC1=O)CCC[C@@H](C)C(=O)N2 [Example 10, (9R,13S)-13-[4-(3-chloro-2,6-difluorophenyl)-6-oxo-1,2,3,6-tetrahydropyridin-1-yl]-3-ethyl-9-methyl-3,4,7,15-tetraazatricyclo[12.3.1.0^2,6]octadeca-1(18),2(6),4,14,16-pentaen-8-one] | 14 | 50 |

Further lines, results first:

| Ki [1] [nM] | Ki [2] [nM] | Compound |
| --- | --- | --- |
| 0.1 | 6 | C[C@H]1C(=O)Nc2cnn(C)c2-c2ccnc(c2)[C@@H](N2CCC(c3cc(Cl)ccc3-n3cc(Cl)nn3)=CC2=O)CCC1F (single isomer, unassigned; isomer a) [Example 13] |
| 19 | 450 | C[C@H]1C(=O)Nc2cnn(C)c2-c2ccnc(c2)[C@@H](N2CCC(c3cc(Cl)ccc3-n3cc(Cl)nn3)=CC2=O)CCC1F (single isomer, unassigned; isomer b) [Example 15] |
| 14 | 480 | C[C@@H]1CCC[C@H](N2CCC(c3cc(Cl)ccc3-n3ccnn3)=CC2=O)c2cc(ccn2)-c2nn(CC(=O)O)cc2NC1=O [Example 12, 2-(13-{4-[5-chloro-2-(1H-1,2,3-triazol-1-yl)phenyl]-6-oxo-1,2,3,6-tetrahydropyridin-1l-yl}-9-methyl-8-oxo-3,4,7,15-tetraazatricyclo[12.3.1.0^2,6]octadeca-1(18),2,5,14,16-pentaen-4-yl)acetic Acid] |
| 1 | 110 | C[C@@H]1CCC[C@H](N2CCC(c3c(C(F)(F)F)ccc(Cl)c3F)=CC2=O)c2cc(ccn2)-c2c(cnn2C(F)F)NC1=O [Example 14, (9R,13S)-13-{4-[3-chloro-2-fluoro-6-(trifluoromethyl)phenyl]-6-oxo-1,2,3,6-tetrahydropyridin-1-yl}-3-(difluoromethyl)-9-methyl-3,4,7,15-tetraazatricyclo[12.3.1.0^2,6]octadeca-1(18),2(6),4,14,16-pentaen-8-one] |
| 0.19 | 17 | C[C@@H]1CCC[C@H](N2CCC(c3cc(Cl)ccc3-n3cc(Cl)nn3)=CC2=O)c2cc(ccn2)-c2c(cnn2CC(=O)O)NC1=O [Example 16, 2-[(9R,13S)-13-{4-[5-chloro-2-(4-chloro-1H-1,2,3-triazol-1-yl)phenyl]-6-oxo-1,2,3,6-tetrahydropyridin-1-yl}-9-methyl-8-oxo-3,4,7,15-tetraazatricyclo [12.3.1.0^2,6]octadeca-1(18),2(6),4,14,16-pentaen-3-yl]acetic acid] |
| 0.15 | 10 | [2H]C([2H])([2H])n1ncc2c1-c1ccnc(c1)[C@@H](N1CCC(c3cc(Cl)ccc3-n3cc(Cl)nn3)=CC1=O)CCC[C@@H](C)C(=O)N2 [Example 17, (9R,13S)-13-{4-[5-chloro-2-(4-chloro-1H-1,2,3-triazol-1-yl)phenyl]-6-oxo-1,2,3,6-tetrahydropyridin-1-yl}-3-(^2H3)methyl-9-methyl-3,4,7,15-tetraazatricyclo[12.3.1.0^2,6]octadeca-1(18),2(6),4,14,16-pentaen-8-one] |
| 2.8 | 30 | [2H]C([2H])([2H])n1ncc2c1-c1ccnc(c1)[C@@H](N1CCC(c3c(C(F)(F)F)ccc(Cl)c3F)=CC1=O)CCC[C@@H](C)C(=O)N2 [Example 18, (9R,13S)-13-{4-[3-chloro-2-fluoro-6-(trifluoromethyl)phenyl]-6-oxo-1,2,3,6-tetrahydropyridin-1-yl}-3-(^2H3)methyl-9-methyl-3,4,7,15-tetraazatricyclo[12.3.1.0^2,6]octadeca-1(18),2(6),4,14,16-pentaen-8-one] |
| 1.4 | 10 | C[C@@H]1CCC[C@H](N2CCC(c3cc(Cl)ccc3C#N)=CC2=O)c2cc(ccn2)-c2c(cnn2C(F)F)NC1=O [Example 19, 4-chloro-2-{1-[(9R,13S)-3-(difluoromethyl)-9-methyl-8-oxo-3,4,7,15-tetraazatricyclo[12.3.1.0^2,6]octadeca-1(18),2(6),4,14,16-pentaen-13-yl]-6-oxo-1,2,3,6-tetrahydropyridin-4-yl}benzonitrile] |
